Laboratory results from article PMC6009907, “Synthesis, characterization and in vitro inhibition of metal complexes of pyrazole based sulfonamide on human erythrocyte carbonic anhydrase isozymes I and II” (Journal of Enzyme Inhibition and Medicinal Chemistry, 2017).

Tests used:
Assay type in all cases: biochemical
hCA-I [1] = target: T1, hCA-I (Homo sapiens, UniProt P00915); experiment: Esterase activity assay (4-nitrophenylacetate, 348 nm), hCA-I; details: hCA-I purified from human erythrocytes, 25 °C, pH 7.4
T1 construct: Purification of isoenzymes hCA-I and hCA-II from human erythrocytes; from tissue; host or cells: human erythrocytes (blood)
Experimental: (§1) In order to purify hCA-I and hCA-II isoenzymes, first, human blood was centrifuged at 1500 rpm for 20 min, and after the removal of the plasma, the erythrocytes were washed with an isotonic solution (0.9% NaCl). After that, the erythrocytes were lysed with 1.5 volume of ice-cold water. The lysate was centrifuged at 20 000 rpm for 30 min to remove cell membranes and non-lysed cells. […] After extensive washing with 25 mM tris–HCl/22 mM Na2SO4 (pH 8.7), the hCA-I and hCA-II isoenzymes were eluted with 1.0 M NaCl/25 mM Na2HPO4 (pH 6.3) and 0.1 M CH3COONa/0.5 M NaClO4 (pH 5.6).[45]^,[46] The amount of purified protein was estimated by the Bradford method[47] and SDS-PAGE was carried out to determine whether the elute containing the enzyme[48] (Supplemental Figure 1).
(§2) The enzymatic reaction, in a total volume of 3.0 mL, contained 1.4 mL of 0.05 M tris–SO4 buffer (pH 7.4), 1 mL of 3 mM 4-nitrophenylacetate, 0.5 mL H2O and 0.1 mL enzyme solution. A reference measurement was obtained by preparing the same cuvette without enzyme solution.
(§3) The method for determination of Ki values is described elsewhere.[52–56] […] Regression analysis graphs were drawn by plotting inhibitor concentrations versus enzyme activity by using Microsoft Excel Program.

hCA-II [2] = target: T2, hCA-II (Homo sapiens, UniProt P00918); experiment: CO2-hydratase activity assay (Wilbur and Anderson), hCA-II; details: hCA-II purified from human erythrocytes; CO2 hydration
T2 construct: Purification of isoenzymes hCA-I and hCA-II from human erythrocytes; from tissue; host or cells: human erythrocytes (blood)
Experimental: as §1
(§4) Carbonic anhydrase activity was assayed by following the hydration of CO2 according to the method described by Wilbur and Anderson.[49] CO2-hydratase activity as an enzyme unit (EU) was calculated by using the equation ((t0−tc)/tc) where t0 and tc are the times for pH change of the nonenzymatic and the enzymatic reactions, respectively.

hCA-II [3] = target: T2, hCA-II; experiment: Determination of Ki values (esterase activity, Lineweaver–Burk), hCA-II; details: five substrate concentrations, Lineweaver–Burk plot
Experimental: as §1, §3

hCA-II [4] = target: T2, hCA-II; experiment: Esterase activity assay (4-nitrophenylacetate, 348 nm), hCA-II; details: hCA-II purified from human erythrocytes, 25 °C, pH 7.4
Experimental: as §1, §2, §3

hCA-I [5] = target: T1, hCA-I; experiment: CO2-hydratase activity assay (Wilbur and Anderson), hCA-I; details: hCA-I purified from human erythrocytes; CO2 hydration
Experimental: as §1, §4

hCA-I [6] = target: T1, hCA-I; experiment: Determination of Ki values (esterase activity, Lineweaver–Burk), hCA-I; details: five substrate concentrations, Lineweaver–Burk plot
Experimental: as §1, §3

T1 sequence (P00915 whole entry): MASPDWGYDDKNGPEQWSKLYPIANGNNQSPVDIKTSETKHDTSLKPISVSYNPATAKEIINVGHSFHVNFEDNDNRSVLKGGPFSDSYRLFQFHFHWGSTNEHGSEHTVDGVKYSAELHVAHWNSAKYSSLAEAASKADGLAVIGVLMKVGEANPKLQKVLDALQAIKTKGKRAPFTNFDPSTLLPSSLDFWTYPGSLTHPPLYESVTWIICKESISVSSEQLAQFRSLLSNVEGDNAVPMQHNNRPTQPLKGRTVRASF

IC50 (hCA-I [1]): 2800 nM | IC50 (hCA-II [2]): 900 nM | Ki (hCA-II [3]): 5300 nM | IC50 (hCA-II [4]): 5600 nM | IC50 (hCA-I [5]): 1400 nM | Ki (hCA-I [6]): 1100 nM
SMILES: CCOC(=O)c1c(C(=O)Nc2nnc(S(N)(=O)=O)s2)nn(-c2cccc([N+](=O)[O-])c2)c1-c1ccccc1 [compound 1, ethyl 1-(3-nitrophenyl)-5-phenyl-3-((5-sulfamoyl-1,3,4-thiadiazol-2-yl)carbamoyl)-1H-pyrazole-4-carboxylate]
